Counter-ions that a name gives are not always drawn.
How the values were obtained:
[1] = target: T1, c-Met (cytoplasmic domain) (Homo sapiens, UniProt P08581); assay: c-Met Kinase Assay (ELISA/TRF, PLC-γ substrate); type: biochemical; conditions: 3 μM ATP (Km level); read-out: c-Met Kinase Inhibition (IC50)
T1 construct: Reactions were initiated with 30 ng/mL c-Met (cytoplasmic domain, Invitrogen Corporation #PV3143); purchased Invitrogen Corporation PV3143
Experimental: Example compounds were tested for their ability to inhibit the kinase activity of baculovirus-expressed ALK using a modification of the ELISA protocol reported for trkA in Angeles, T. S. et al., Anal. Biochem. 1996, 236, 49-55, which is incorporated herein by reference in its entirety. Phosphorylation of the substrate, phospholipase C-gamma (PLC-γ) generated as a fusion protein with glutathione S-transferase (GST) as reported in Rotin, D. et al., EMBO J. 1992, 11, 559-567, which is incorporated herein by reference in its entirety, was detected with a europium-labeled anti-phosphotyrosine antibody and measured by time-resolved fluorescence (TRF). Briefly, each 96-well plate was coated with 100 μL/well of 10 μg/mL substrate (phospholipase C-γ) in Tris-buffered saline (TBS). […] The reaction was initiated by adding enzyme (30 ng/ml ALK) and was allowed to proceed at 37° C. for 15 minutes. Detection of the phosphorylated product was performed by adding 100 μl/well of Eu-N1 labeled PT66 antibody (Perkin Elmer # AD0041). Incubation at 37° C. then proceeded for one (1) hour, followed by addition of 100 μL enhancement solution (Wallac #1244-105). The plate was gently agitated and after thirty minutes, the fluorescence of the resulting solution was measured using the EnVision 2100 (or 2102) multilabel plate reader (Perkin Elmer).
Data analysis was performed using ActivityBase (IDBS, Guilford, UK). IC50 values were calculated by plotting percent inhibition versus log10 of the concentration of compound and fitting to the nonlinear regression sigmoidal dose-response (variable slope) equation in XLFit (IDBS, Guilford, UK).
Reactions were initiated with 30 ng/mL c-Met (cytoplasmic domain, Invitrogen Corporation #PV3143).

[2] = target: baculovirus-expressed ALK (Homo sapiens, UniProt Q9UM73); assay: ALK Kinase Assay (ELISA/TRF, PLC-γ substrate); type: biochemical; conditions: read-out: ALK Kinase Inhibition (IC50); note: 1 µM ATP (Km level)
How it was run: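 Read-out: TRF of europium-labeled anti-phosphotyrosine antibody bound to phosphorylated GST–PLC-γ coated at 10 μg/mL. Kinase step used 30 ng/ml ALK, 37° C, 15 minutes. IC50 values fitted by nonlinear sigmoidal dose-response (variable slope).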

Sequence of baculovirus-expressed ALK (Q9UM73 19-1620): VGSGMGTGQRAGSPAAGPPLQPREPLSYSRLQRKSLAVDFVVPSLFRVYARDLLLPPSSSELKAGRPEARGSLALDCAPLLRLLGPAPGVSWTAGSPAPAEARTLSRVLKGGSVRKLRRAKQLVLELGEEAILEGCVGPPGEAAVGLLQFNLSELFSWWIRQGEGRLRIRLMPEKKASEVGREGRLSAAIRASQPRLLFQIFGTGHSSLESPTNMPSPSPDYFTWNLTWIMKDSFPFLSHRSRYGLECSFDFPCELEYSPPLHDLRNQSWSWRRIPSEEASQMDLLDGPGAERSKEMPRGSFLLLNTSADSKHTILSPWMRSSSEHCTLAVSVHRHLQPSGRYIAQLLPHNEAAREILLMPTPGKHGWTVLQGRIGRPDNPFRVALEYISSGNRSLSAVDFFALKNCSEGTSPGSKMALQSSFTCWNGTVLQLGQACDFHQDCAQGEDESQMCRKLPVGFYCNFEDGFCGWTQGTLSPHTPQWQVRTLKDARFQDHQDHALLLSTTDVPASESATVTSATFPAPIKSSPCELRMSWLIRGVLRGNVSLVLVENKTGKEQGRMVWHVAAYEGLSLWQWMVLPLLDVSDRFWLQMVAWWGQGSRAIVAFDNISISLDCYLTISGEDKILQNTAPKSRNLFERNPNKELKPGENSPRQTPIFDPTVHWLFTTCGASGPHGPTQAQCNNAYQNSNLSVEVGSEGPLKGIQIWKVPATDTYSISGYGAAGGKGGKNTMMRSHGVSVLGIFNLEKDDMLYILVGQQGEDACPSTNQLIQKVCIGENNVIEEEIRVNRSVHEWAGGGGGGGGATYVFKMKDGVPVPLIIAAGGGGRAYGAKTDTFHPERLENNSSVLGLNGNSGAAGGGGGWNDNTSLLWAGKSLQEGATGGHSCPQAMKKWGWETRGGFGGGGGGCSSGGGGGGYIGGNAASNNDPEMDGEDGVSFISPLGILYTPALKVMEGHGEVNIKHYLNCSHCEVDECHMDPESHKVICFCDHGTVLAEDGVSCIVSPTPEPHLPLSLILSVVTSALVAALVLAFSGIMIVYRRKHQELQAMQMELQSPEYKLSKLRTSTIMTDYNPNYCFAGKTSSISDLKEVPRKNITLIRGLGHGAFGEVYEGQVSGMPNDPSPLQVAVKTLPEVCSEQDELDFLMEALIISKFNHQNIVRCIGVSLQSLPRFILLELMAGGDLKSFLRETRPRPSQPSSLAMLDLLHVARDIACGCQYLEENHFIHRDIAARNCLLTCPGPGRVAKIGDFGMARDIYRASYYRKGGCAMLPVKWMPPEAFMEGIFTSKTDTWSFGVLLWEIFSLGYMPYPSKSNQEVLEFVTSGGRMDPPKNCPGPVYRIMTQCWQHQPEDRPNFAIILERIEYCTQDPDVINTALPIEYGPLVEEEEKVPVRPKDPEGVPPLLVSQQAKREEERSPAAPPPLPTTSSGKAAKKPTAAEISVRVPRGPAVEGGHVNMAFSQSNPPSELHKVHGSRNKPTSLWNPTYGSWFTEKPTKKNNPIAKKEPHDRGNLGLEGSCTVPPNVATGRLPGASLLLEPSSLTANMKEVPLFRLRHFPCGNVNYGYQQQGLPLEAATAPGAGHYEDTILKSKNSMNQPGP
T1 sequence (P08581 956-1390 limits assumed): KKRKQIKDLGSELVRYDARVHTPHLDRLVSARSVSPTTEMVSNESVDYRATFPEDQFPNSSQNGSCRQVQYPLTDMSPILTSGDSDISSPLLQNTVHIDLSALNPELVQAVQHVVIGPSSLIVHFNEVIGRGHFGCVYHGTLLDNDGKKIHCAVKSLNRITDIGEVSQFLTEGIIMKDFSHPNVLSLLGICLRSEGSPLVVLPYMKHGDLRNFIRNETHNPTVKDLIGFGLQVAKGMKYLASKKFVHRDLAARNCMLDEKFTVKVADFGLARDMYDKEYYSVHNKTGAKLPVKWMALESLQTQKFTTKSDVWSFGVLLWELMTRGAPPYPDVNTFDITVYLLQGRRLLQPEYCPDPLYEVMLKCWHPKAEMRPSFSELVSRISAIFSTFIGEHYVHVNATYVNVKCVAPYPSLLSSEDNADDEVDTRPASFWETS

IC50 [1] [µM] | IC50 [2] [µM] | SMILES
10 to 100 | 1 to 10 | c1ccc(CN2CCNc3ncc(-c4cccnc4)cc32)cc1 [Example 34, 1-Benzyl-7-pyridin-3-yl-1,2,3,4-tetrahydropyrido[2,3-b]pyrazine]
> 100 | 1 to 10 | COc1ccc(N2CCN(C(=O)c3cnc4c(c3)N(Cc3cc(Cl)ccc3Cl)CCN4)CC2)cc1 [Example 247, [1-(2,5-Dichlorobenzyl)-1,2,3,4-tetrahydropyrido[2,3-b]pyrazin-7-yl]-[4-(4-methoxyphenyl)piperazin-1-yl]methanone]
10 to 100 | 1 to 10 | O=C(c1cnc2c(c1)N(Cc1cc(Cl)ccc1Cl)CCN2)N1CCC(n2c(=O)[nH]c3ccccc32)CC1 [Example 209, 1-{1-[1-(2,5-Dichlorobenzyl)-1,2,3,4-tetrahydropyrido[2,3-b]pyrazine-7-carbonyl]piperidin-4-yl}-1,3-dihydrobenzoimidazol-2-one]
10 to 100 | 1 to 10 | O=C(NCc1cccnc1)c1cnc2c(c1)N(Cc1cc(Cl)ccc1Cl)CCN2 [Example 235, 1-(2,5-Dichlorobenzyl)-1,2,3,4-tetrahydropyrido[2,3-b]pyrazine-7-carboxylic acid (pyridin-3-ylmethyl)amide]
> 100 | 1 to 10 | CN1CCN(c2ccc(-c3cnc4c(c3)N(Cc3cc(Cl)ccc3Cl)CCN4C)cn2)CC1 [Example 188, 1-(2,5-Dichlorobenzyl)-4-methyl-7-[6-(4-methylpiperazin-1-yl)pyridin-3-yl]-1,2,3,4-tetrahydropyrido[2,3-b]pyrazine]
> 100 | > 100 | Fc1cccc(CN2CCNc3ncc(I)cc32)c1C(F)(F)F [Example 179, 1-[3-Fluoro-2-(trifluoromethyl)benzyl]-7-iodo-1,2,3,4-tetrahydropyrido[2,3-b]pyrazine]
1 to 10 | < 0.1 | O=C(c1ccc(-c2cnc3c(c2)N(Cc2ccccc2OC(F)(F)F)CCN3)cc1)N1CCC(N2CCCC2)CC1 [Example 305, (4-Pyrrolidin-1-yl-piperidin-1-yl)-(4-{1-[2-(trifluoromethoxy)benzyl]-1,2,3,4-tetrahydropyrido[2,3-b]pyrazin-7-yl}phenyl)methanone]
10 to 100 | 0.1 to 1 | CN1CCN(c2ccc(-c3cnc4c(c3)N(S(=O)(=O)c3ccccc3)CCN4)cn2)CC1 [Example 125, 1-Benzenesulfonyl-7-[6-(4-methylpiperazin-1-yl)pyridin-3-yl]-1,2,3,4-tetrahydropyrido[2,3-b]pyrazine]
> 100 | 1 to 10 | O=C(c1cnc2c(c1)N(Cc1cc(Cl)ccc1Cl)CCN2)N1CCN(Cc2ccc(Cl)cc2)CC1 [Example 255, [4-(4-Chlorobenzyl)piperazin-1-yl]-[1-(2,5-dichlorobenzyl)-1,2,3,4-tetrahydropyrido[2,3-b]pyrazin-7-yl]methanone]
> 100 | 1 to 10 | O=C(NCc1ccccc1Cl)c1cnc2c(c1)N(Cc1cc(Cl)ccc1Cl)CCN2 [Example 256, 1-(2,5-Dichlorobenzyl)-1,2,3,4-tetrahydropyrido[2,3-b]pyrazine-7-carboxylic acid 2-chloro-benzylamide]
> 100 | 1 to 10 | O=C(NCCc1ccccn1)c1cnc2c(c1)N(Cc1cc(Cl)ccc1Cl)CCN2 [Example 223, 1-(2,5-Dichlorobenzyl)-1,2,3,4-tetrahydropyrido[2,3-b]pyrazine-7-carboxylic acid (2-pyridin-2-yl-ethyl)amide]
10 to 100 | 10 to 100 | O=C(c1cnc2c(c1)N(Cc1cc(Cl)ccc1Cl)CCN2)N1CCN(c2cccc(C(F)(F)F)c2)CC1 [Example 211, [1-(2,5-Dichlorobenzyl)-1,2,3,4-tetrahydropyrido[2,3-b]pyrazin-7-yl]-{4-[3-(trifluoromethyl)phenyl]piperazin-1-yl}methanone]
1 to 10 | 0.1 to 1 | O=C(c1ccc(-c2cnc3c(c2)N(Cc2cc(F)c(F)cc2F)CCN3)cc1)N1CCC[C@H]1CN1CCCC1 [Example 84, ((S)-2-((pyrrolidin-1-yl)methyl)pyrrolidin-1-yl)-{4-[1-(2,4,5-trifluorobenzyl)-1,2,3,4-tetrahydropyrido[2,3-b]pyrazin-7-yl]phenyl}-methanone]
> 100 | 0.1 to 1 | O=C(NCc1ccccc1)c1cnc2c(c1)N(Cc1cc(Cl)ccc1Cl)CCN2 [Example 246, 1-(2,5-Dichlorobenzyl)-1,2,3,4-tetrahydropyrido[2,3-b]pyrazine-7-carboxylic acid benzylamide]
> 100 | > 100 | O=C(c1cc(F)ccc1F)N1CCNc2ncc(I)cc21 [Example 87, (2,5-Difluorophenyl)-(7-iodo-3,4-dihydro-2H-pyrido[2,3-b]pyrazin-1-yl)methanone]
10 to 100 | > 100 | O=C(Cc1ccccc1)N1CCNc2ncc(I)cc21 [Example 110, 1-(7-Iodo-3,4-dihydro-2H-pyrido[2,3-b]pyrazin-1-yl)-2-phenylethanone]
1 to 10 | 0.1 to 1 | Fc1ccc(F)c(CN2CCNc3ncc(-c4ccnc(N5CCCC5)c4)cc32)c1Cl [Example 183, 1-(2-Chloro-3,6-difluorobenzyl)-7-(2-pyrrolidin-1-yl-pyridin-4-yl)-1,2,3,4-tetrahydropyrido[2,3-b]pyrazine]
10 to 100 | 1 to 10 | CN1CCN(C(=O)c2ccc(-c3cnc4c(c3)N(Cc3ccccc3)C(=O)CN4)cc2)CC1 [Example 25, 1-Benzyl-7-[4-(4-methylpiperazine-1-carbonyl)phenyl]-3,4-dihydro-1H-pyrido[2,3-b]pyrazin-2-one, trifluoroacetic acid salt]
> 100 | 1 to 10 | O=C(c1cnc2c(c1)N(Cc1cc(Cl)ccc1Cl)CCN2)N1CCN(c2ccccc2Cl)CC1 [Example 261, [4-(2-Chlorophenyl)piperazin-1-yl]-[1-(2,5-dichlorobenzyl)-1,2,3,4-tetrahydropyrido[2,3-b]pyrazin-7-yl]methanone]
> 100 | 1 to 10 | O=C(NCc1ccc(OC(F)(F)F)cc1)c1cnc2c(c1)N(Cc1cc(Cl)ccc1Cl)CCN2 [Example 230, 1-(2,5-Dichlorobenzyl)-1,2,3,4-tetrahydropyrido[2,3-b]pyrazine-7-carboxylic acid 4-(trifluoromethoxy)benzylamide]
10 to 100 | 10 to 100 | CC(=O)N1CCN(C(=O)c2cnc3c(c2)N(Cc2cc(Cl)ccc2Cl)CCN3)CC1 [Example 227, 1-{4-[1-(2,5-Dichlorobenzyl)-1,2,3,4-tetrahydropyrido[2,3-b]pyrazine-7-carbonyl]piperazin-1-yl}ethanone]
> 100 | 1 to 10 | O=C(c1cnc2c(c1)N(Cc1cc(Cl)ccc1Cl)CCN2)N1CCN(c2ncccn2)CC1 [Example 207, [1-(2,5-Dichlorobenzyl)-1,2,3,4-tetrahydropyrido[2,3-b]pyrazin-7-yl]-(4-pyrimidin-2-yl-piperazin-1-yl)-methanone]
10 to 100 | 1 to 10 | O=C(NC(c1ccccc1)c1ccccc1)c1cnc2c(c1)N(Cc1cc(Cl)ccc1Cl)CCN2 [Example 233, 1-(2,5-Dichlorobenzyl)-1,2,3,4-tetrahydropyrido[2,3-b]pyrazine-7-carboxylic acid benzhydrylamide]

Source: patent US7601716B2, “Pyridopyrazines and derivatives thereof as ALK and c-Met inhibitors” (Cephalon, Inc., priority 2006, dated 2009)
